Test results from patent US9309224B2 (Deciphera Pharmaceuticals, LLC, priority 2013, dated 2016).
pIC50: −log10 of the molar value.

Key:
[1] = test system: c-FMS; assay: cFOS mRNA production in a c-FMS mouse spleen pharmacodynamic model; type: in vivo; conditions: out to 8 h post 30 mg/kg single oral dose, read-out: inhibition of cFOS mRNA levels
Protocol: Analysis of cFOS mRNA Production in a c-FMS Mouse Spleen Pharmacodynamic Model To examine the in vivo modulation of FMS activity by compounds of formula I, spleen samples from female DBA/1 mice were collected and analyzed for M-CSF stimulated production of cFOS mRNA. Briefly, six to seven week old female Taconic DBA/1BO J Bom Tac mice were treated with a single oral dose (by gavage) of either vehicle or compound. Plasma and spleen samples are collected from four mice at each timepoint 2, 4, 6, 8, 12, 18, and 24 hours after dosing. Fifteen minutes prior to euthanasia, all mice were injected IV with 1 μg (100 μL fixed volume) of M-CSF. M-CSF, Recombinant Mouse Macrophage Colony Stimulating Factor (36.4 kDa homodimer, ≧98% purity) was obtained from Gibco. All procedures carried out in this experiment were conducted in compliance with all the laws, regulations and guidelines of the National Institutes of Health (NIH). cFOS mRNA levels in spleen extracts were determined using a quantitative reverse transcriptase PCR kit from Life Technologies. Plasma levels of FMS inhibitors were determined by mass spectrometer analysis. The degree of FMS inhibition was correlative to the amount of decrease observed in cFOS mRNA levels in the spleen samples of treated animals compared to vehicle.

[2] = target: T1, unphosphorylated c-KIT kinase (uKIT, Seq. ID no. 2) (Homo sapiens, UniProt P10721); assay: uKit kinase assay (pyruvate kinase/lactate dehydrogenase coupled); type: biochemical; conditions: ATP 2000 μM
T1 construct: uKit with N-terminal GST fusion used for
Protocol: In this assay, the oxidation of NADH (thus the decrease at A340 nm) was continuously monitored spectrophometrically. […] The inhibition reaction was started by mixing serial diluted test compound with the above reaction mixture. The absorption at 340 nm was monitored continuously for 4 hours at 30° C. on Synergy 2 plate reader (BioTech).

[3] = test system: osteoclast precursors; assay: Osteoclast tartrate-resistant acid phosphatase assay; type: cell-based; conditions: Osteoclast; 7-14 days, RANKL and M-CSF
[4] = target: T2, unphosphorylated c-FMS kinase (uFMS, Seq. ID no. 1) (Homo sapiens, UniProt P07333); assay: uFMS kinase assay (pyruvate kinase/lactate dehydrogenase coupled); type: biochemical; conditions: ATP 500 μM
T2 construct: purchased Millipore
T2 sequence (P07333 538-972): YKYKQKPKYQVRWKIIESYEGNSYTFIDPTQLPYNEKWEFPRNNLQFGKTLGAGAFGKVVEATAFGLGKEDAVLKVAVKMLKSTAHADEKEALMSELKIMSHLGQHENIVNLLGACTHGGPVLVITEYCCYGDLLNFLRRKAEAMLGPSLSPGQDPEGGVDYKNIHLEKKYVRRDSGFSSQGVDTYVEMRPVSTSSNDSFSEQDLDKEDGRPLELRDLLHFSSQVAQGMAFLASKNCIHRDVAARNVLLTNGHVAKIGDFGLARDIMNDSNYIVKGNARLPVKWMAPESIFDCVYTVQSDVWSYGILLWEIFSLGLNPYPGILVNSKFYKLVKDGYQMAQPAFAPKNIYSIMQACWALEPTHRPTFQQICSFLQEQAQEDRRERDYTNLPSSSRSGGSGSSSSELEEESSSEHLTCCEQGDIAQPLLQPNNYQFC
Protocol: In this assay, the oxidation of NADH (thus the decrease at A340 nm) was continuously monitored spectrophometrically. The reaction mixture (100 μL) contained FMS (purchased from Millipore) (10 nM), polyE4Y (1 mg/mL), MgCl2 (10 mM), pyruvate kinase (4 units), lactate dehydrogenase (0.7 units), phosphoenol pyruvate (1 mM), NADH (0.28 mM) and ATP (500 μM) in 90 mM Tris buffer containing 0.2% octyl-glucoside and 1% DMSO, pH 7.5. The inhibition reaction was started by mixing serial diluted test compound with the above reaction mixture. The absorption at 340 nm was monitored continuously for 4 hours at 30° C. on Synergy 2 plate reader. The reaction rate was calculated using the 3 to 4 h time frame. Percent inhibition was obtained by comparison of reaction rate with that of a control (i.e. in the absence of test compound). IC50 values were calculated from a series of percent inhibition values determined at a range of inhibitor concentrations using software routines as implemented in the GraphPad Prism software package.

[5] = test system: M-NFS-60 cells; assay: M-NFS-60 cell proliferation assay; type: cell-based; conditions: 67 h incubation, resazurin
Protocol: M-NFS-60 Cell Proliferation Assay A serial dilution of test compound was dispensed into a 384-well black clear bottom plate (Corning, Corning, N.Y.). Two thousand five hundred cells were added per well in 50 μL complete growth medium. […] IC50 values were calculated from a series of percent inhibition values determined at a range of inhibitor concentrations using software routines as implemented in the GraphPad Prism software package.

[6] = target: T3, unphosphorylated PDGFRβ kinase (uPDGFRβ, Seq. ID No. 3) (Homo sapiens, UniProt P09619); assay: Unphosphorylated PDGFRβ kinase assay (pyruvate kinase/lactate dehydrogenase coupled); type: biochemical; conditions: ATP 500 μM
T3 construct: purchased DeCode
Description: Unphosyhorylated PDGFRβ (uPDGFRβkinase (Seq. ID No. 3) assay

[7] = target: T4, phospho-FMS in THP-1 cells (Homo sapiens, UniProt P07333); assay: Phospho-FMS ELISA assay in THP-1 cells; type: cell-based; conditions: 4 hours compound, M-CSF stimulated; read-out: pFMS inhibition in THP-1 cells
T4 construct: endogenous in cells; host or cells: THP-1 (ATCC TIB-202)
T4 sequence (P07333 20-972): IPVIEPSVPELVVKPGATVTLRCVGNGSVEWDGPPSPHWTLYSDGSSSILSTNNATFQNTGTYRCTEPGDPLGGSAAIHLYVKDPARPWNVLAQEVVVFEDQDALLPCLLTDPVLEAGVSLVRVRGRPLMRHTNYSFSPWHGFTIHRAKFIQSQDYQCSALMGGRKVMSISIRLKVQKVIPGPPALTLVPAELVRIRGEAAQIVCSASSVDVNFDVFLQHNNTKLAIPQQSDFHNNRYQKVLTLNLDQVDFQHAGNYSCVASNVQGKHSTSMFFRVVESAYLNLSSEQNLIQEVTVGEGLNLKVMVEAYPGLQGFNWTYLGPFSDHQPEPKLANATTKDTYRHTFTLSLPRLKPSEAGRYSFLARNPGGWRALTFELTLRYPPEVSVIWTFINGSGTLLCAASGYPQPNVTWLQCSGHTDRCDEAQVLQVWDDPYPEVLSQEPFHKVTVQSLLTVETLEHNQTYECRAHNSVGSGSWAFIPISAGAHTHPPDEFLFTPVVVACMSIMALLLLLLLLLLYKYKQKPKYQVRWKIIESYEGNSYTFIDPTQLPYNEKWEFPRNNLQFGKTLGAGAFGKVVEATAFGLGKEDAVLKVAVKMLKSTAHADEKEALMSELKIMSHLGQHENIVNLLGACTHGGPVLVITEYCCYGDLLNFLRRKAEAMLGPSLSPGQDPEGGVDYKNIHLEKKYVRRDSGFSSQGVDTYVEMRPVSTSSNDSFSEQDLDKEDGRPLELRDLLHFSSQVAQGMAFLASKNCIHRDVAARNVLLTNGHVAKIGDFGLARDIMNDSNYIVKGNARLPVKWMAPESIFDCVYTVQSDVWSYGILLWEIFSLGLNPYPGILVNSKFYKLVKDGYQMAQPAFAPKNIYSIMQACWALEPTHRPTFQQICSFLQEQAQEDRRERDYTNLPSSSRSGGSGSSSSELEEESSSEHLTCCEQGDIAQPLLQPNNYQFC

T1 sequence (P10721 with tags, fused parts or gaps): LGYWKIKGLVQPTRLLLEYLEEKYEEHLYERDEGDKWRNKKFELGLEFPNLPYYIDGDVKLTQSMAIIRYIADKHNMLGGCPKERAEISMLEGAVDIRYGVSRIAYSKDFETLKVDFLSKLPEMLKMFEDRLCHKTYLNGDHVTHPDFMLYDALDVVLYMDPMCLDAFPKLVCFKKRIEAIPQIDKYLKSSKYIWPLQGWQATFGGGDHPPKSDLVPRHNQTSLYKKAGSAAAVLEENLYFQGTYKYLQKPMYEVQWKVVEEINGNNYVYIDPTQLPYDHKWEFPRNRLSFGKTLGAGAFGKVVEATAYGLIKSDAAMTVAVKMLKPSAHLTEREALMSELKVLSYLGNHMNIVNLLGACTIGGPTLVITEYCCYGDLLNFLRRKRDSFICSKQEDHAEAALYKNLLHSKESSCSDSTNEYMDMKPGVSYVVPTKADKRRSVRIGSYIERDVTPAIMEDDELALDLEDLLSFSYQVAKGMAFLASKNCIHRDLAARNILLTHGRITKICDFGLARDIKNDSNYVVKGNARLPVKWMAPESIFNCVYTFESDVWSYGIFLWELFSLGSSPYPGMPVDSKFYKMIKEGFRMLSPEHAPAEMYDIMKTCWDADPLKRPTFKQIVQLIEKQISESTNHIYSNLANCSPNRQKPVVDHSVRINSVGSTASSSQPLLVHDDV
T3 sequence (P09619 557-1105): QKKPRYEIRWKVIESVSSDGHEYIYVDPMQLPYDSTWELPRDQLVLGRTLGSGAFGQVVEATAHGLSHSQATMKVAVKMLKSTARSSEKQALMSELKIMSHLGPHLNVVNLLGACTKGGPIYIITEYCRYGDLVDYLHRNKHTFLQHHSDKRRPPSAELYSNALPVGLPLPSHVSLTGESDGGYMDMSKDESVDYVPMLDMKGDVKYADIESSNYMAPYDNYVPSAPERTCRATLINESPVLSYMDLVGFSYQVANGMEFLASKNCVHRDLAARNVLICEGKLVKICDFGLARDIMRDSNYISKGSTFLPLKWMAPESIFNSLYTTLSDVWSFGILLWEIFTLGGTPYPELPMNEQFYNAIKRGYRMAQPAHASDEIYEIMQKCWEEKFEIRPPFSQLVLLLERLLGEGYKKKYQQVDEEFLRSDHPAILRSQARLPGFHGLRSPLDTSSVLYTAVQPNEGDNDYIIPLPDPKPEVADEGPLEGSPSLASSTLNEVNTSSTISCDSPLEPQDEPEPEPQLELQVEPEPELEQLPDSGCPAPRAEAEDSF

Structure (SMILES)	pIC50 [2]	pIC50 [3]	pIC50 [4]	pIC50 [6]	pIC50 [7]	inhibition in vivo at 30 mg/kg [1] [%]	pIC50 [5]
CC(=O)Nc1cc(Oc2ccc(NC(=O)NC(=O)C3CCCC3)nc2C)ccn1 [Example 8, N-((5-((2-acetamidopyridin-4-yl)oxy)-6-methylpyridin-2-yl)carbamoyl)cyclopentanecarboxamide]	6.00 to 7.00	> 8.00	> 8.00	7.00 to 8.00	> 8.00	≥ 50	> 8.00
Cc1nc(NC(=O)NC(=O)C(C)(C)C)ccc1Oc1ccnc(NC(=O)C2CC2)c1 [Example 11, N-(4-((2-methyl-6-(3-pivaloylureido)pyridin-3-yl)oxy)pyridin-2-yl)cyclopropanecarboxamide]	< 6.00	> 8.00	> 8.00	7.00 to 8.00	> 8.00	≥ 50	> 8.00
COC(C)(C)C(=O)NC(=O)Nc1ccc(Oc2ccnc(NC(C)=O)c2)cn1 [Example 26, N-((5-((2-acetamidopyridin-4-yl)oxy)pyridin-2-yl)carbamoyl)-2-methoxy-2-methylpropanamide]	< 6.00	> 8.00	> 8.00	6.00 to 7.00	> 8.00	≥ 50	7.00 to 8.00
CNC(=O)c1cc(Oc2ccc(NC(=O)NC(=O)C(C)(C)C)nc2)ccn1 [Example 34, N-methyl-4-((6-(3-pivaloylureido)pyridin-3-yl)oxy)picolinamide]	< 6.00	7.00 to 8.00	> 8.00	< 6.00	7.00 to 8.00	≥ 50	7.00 to 8.00
Cc1nc(NC(=O)NC(=O)C(C)(C)C)ccc1Oc1ccnc(NC(=O)N(C)C)c1 [Example 62, N-((5-((2-(3,3-dimethylureido)pyridin-4-yl)oxy)-6-methylpyridin-2-yl)carbamoyl)pivalamide]	< 6.00	7.00 to 8.00	> 8.00	< 6.00	> 8.00	≥ 50	> 8.00

More lines, main results first:

pIC50 [2]	pIC50 [3]	pIC50 [4]	pIC50 [6]	pIC50 [7]	Structure (SMILES)	inhibition in vivo at 30 mg/kg [1] [%]	pIC50 [5]
< 6.00	> 8.00	> 8.00	< 6.00	7.00 to 8.00	CN1CCC(C(=O)Nc2cc(Oc3ccc(NC(=O)NC(=O)C(C)(C)C)nc3)ccn2)CC1 [Example 21, 1-methyl-N-(4-((6-(3-pivaloylureido)pyridin-3-yl)oxy)pyridin-2-yl)piperidine-4-carboxamide]	≥ 50	7.00 to 8.00
< 6.00	> 8.00	> 8.00	6.00 to 7.00	> 8.00	CN(C)C(=O)Nc1cc(Oc2ccc(NC(=O)NC(=O)C(C)(C)C)nc2)ccn1 [Example 23, N-((5-((2-(3,3-dimethylureido)pyridin-4-yl)oxy)pyridin-2-yl)carbamoyl)pivalamide]	≥ 50	> 8.00
< 6.00	> 8.00	> 8.00	6.00 to 7.00	> 8.00	CC(C)(C)C(=O)NC(=O)Nc1ccc(Oc2ccnc(NC(=O)N3CCNCC3)c2)cn1 [Example 83, N-(4-((6-(3-pivaloylureido)pyridin-3-yl)oxy)pyridin-2-yl)piperazine-1-carboxamide]	≥ 50	7.00 to 8.00
